Measurements as given in patent publication US10508309B2, “Methods for detecting and treating variants of seborrheic keratoses” (THE GENERAL HOSPITAL CORPORATION, priority 2013, dated 2019).

Test system: SK
Test: Response to A44/puro (summary of features for KA, SK, and SCC)
Settings: seborrheic keratosis (SK) column; the KA and SCC cells print "?"

COc1ccc(C[C@H](N)C(=O)N[C@H]2[C@@H](O)[C@H](n3cnc4c(N(C)C)ncnc43)O[C@@H]2CO)cc1 [puro, puromycin]
Response to A44/puro?: Yes
